Laboratory results: patent US6737383B1, “Herbicidal oxadiazolidines” (priority 1999, dated 2004)

Tests used:
cocklebur = test: Test B pre/postemergence cocklebur; assay type: in vivo, Xanthium strumarium
In short: (§1)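 Herbicidal effect was estimated by eye on a ten-point control scale after plants spent twelve to sixteen days in a greenhouse following soil or foliar treatment. Foliar sprays targeted plants at one to four leaves; all doses were formulated in a non-phytotoxic solvent with surfactant.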

velvetleaf = test: Test B pre/postemergence velvetleaf; assay type: in vivo, Abutilon theophrasti
In short: as §1

corn = test: Test B pre/postemergence corn; assay type: in vivo, Zea mays
In short: as §1

duck salad = test: Test B flood test duck salad; assay type: in vivo, Heteranthera limosa
In short: (§2)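 Flood test on plants grown to the 2-leaf stage; treated plants kept in greenhouse twelve to sixteen days, then visually rated against controls on a 0 (no effect) to 10 (complete control) scale.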

soybean = test: Test B pre/postemergence soybean; assay type: in vivo, Glycine max
In short: as §1

morningglory = test: Test B pre/postemergence morningglory; assay type: in vivo, Ipomoea hederacea
In short: as §1

smallflower flatsedge = test: Test B flood test smallflower flatsedge; assay type: in vivo, Cyperus difformis
In short: as §2

purple nutsedge = test: Test B pre/postemergence purple nutsedge; assay type: in vivo, Cyperus rotundus
In short: as §1

pigweed = test: Test B pre/postemergence pigweed; assay type: in vivo, Amaranthus retroflexus
In short: as §1

rice = test: Test B flood test rice; assay type: in vivo, Oryza sativa
In short: as §2

bedstraw = test: Test B pre/postemergence bedstraw; assay type: in vivo, Galium aparine
In short: as §1

wild oat = test: Test B pre/postemergence wild oat; assay type: in vivo, Avena fatua
In short: as §1

wheat = test: Test B pre/postemergence wheat; assay type: in vivo, Triticum aestivum
In short: as §1

crabgrass = test: Test B pre/postemergence crabgrass; assay type: in vivo, Digitaria sanguinalis
In short: as §1

rape = test: Test B pre/postemergence rape; assay type: in vivo, Brassica napus
In short: as §1

giant foxtail = test: Test B pre/postemergence giant foxtail; assay type: in vivo, Setaria faberii
In short: as §1

[1] = Postemergence, Rate 250 g/ha, scale 0 to 10, 0 no effect, 10 complete control
[2] = Postemergence, Rate 1000 g/ha, scale 0 to 10 (0 no effect, 10 complete control)
[3] = Preemergence, Rate 125 g/ha, scale 0 to 10 (0 no effect, 10 complete control)
[4] = Preemergence, Rate 250 g/ha, scale of 0 to 10 where 0 is no effect and 10 is complete control
[5] = Preemergence, Rate 500 g/ha, scale 0 (no effect) to 10 (complete control)
[6] = Rate 125 g/ha, Postemergence, scale 0 to 10, 0 no effect, 10 complete control
[7] = Rate 500 g/ha, Postemergence, 0 to 10 scale (0 no effect, 10 complete control)
[8] = Rate 1000 g/ha, Preemergence, scale 0 to 10 (0 no effect, 10 complete control)
[9] = Rate 125 g/ha, Postemergence section (flood test species), scale 0 to 10, 0 no effect, 10 complete control
[10] = Rate 500 g/ha, Postemergence section of Table B, 0 to 10 scale (0 no effect, 10 complete control)
[11] = flood test, listed under Postemergence, Rate 250 g/ha, scale 0 to 10, 0 no effect, 10 complete control

## COc1ccc(-n2c(=O)on(C(=O)N(c3ccc(F)cc3)C(C)C)c2=O)cc1 [Compound 5]
cocklebur; [1]
  Cocklebur plant response rating: 5
cocklebur; [2]
  Cocklebur plant response rating: 8
cocklebur; [3]
  Plant response rating, Cocklebur: 0
cocklebur; [4]
  Plant response rating, Cocklebur: 0
cocklebur; [5]
  Cocklebur plant response rating: 0
cocklebur; [6]
  Cocklebur plant response rating: 5
cocklebur; [7]
  Cocklebur plant response rating: 5
cocklebur; [8]
  Plant response rating, Cocklebur: 0
velvetleaf; [1]
  Velvetleaf plant response rating: 5
velvetleaf; [2]
  Velvetleaf plant response rating: 7
velvetleaf; [3]
  Plant response rating, Velvetleaf: 0
velvetleaf; [4]
  Plant response rating, Velvetleaf: 0
velvetleaf; [5]
  Velvetleaf plant response rating: 0
velvetleaf; [6]
  Velvetleaf plant response rating: 4
velvetleaf; [8]
  Plant response rating, Velvetleaf: 0
corn; [1]
  Corn plant response rating: 0
corn; [2]
  Corn plant response rating: 0
corn; [3]
  Plant response rating, Corn: 0
corn; [4]
  Plant response rating, Corn: 0
corn; [5]
  Corn plant response rating: 0
corn; [6]
  Corn plant response rating: 0
corn; [7]
  Corn plant response rating: 0
corn; [8]
  Plant response rating, Corn: 0
Duck salad; [2]
  Ducksalad plant response rating: 0
Duck salad; [9]
  Ducksalad plant response rating: 0
Duck salad; [10]
  Ducksalad plant response rating: 0
Duck salad; [11]
  Ducksalad plant response rating: 0
soybean; [1]
  Soybean plant response rating: 5
soybean; [2]
  Soybean plant response rating: 6
soybean; [3]
  Plant response rating, Soybean: 0
soybean; [4]
  Plant response rating, Soybean: 0
soybean; [5]
  Soybean plant response rating: 0
soybean; [6]
  Soybean plant response rating: 5
soybean; [8]
  Plant response rating, Soybean: 0
morningglory; [1]
  Morningglory plant response rating: 3
morningglory; [2]
  Morningglory plant response rating: 9
morningglory; [3]
  Plant response rating, Morningglory: 0
morningglory; [4]
  Plant response rating, Morningglory: 0
morningglory; [5]
  Morningglory plant response rating: 0
morningglory; [6]
  Morningglory plant response rating: 2
morningglory; [8]
  Plant response rating, Morningglory: 0
Smallflower flatsedge; [2]
  S. Flatsedge plant response rating: 2
Smallflower flatsedge; [9]
  S. Flatsedge plant response rating: 0
Smallflower flatsedge; [11]
  S. Flatsedge plant response rating: 0
Purple nutsedge; [1]
  Nutsedge plant response rating: 0
Purple nutsedge; [2]
  Nutsedge plant response rating: 0
Purple nutsedge; [3]
  Plant response rating, Nutsedge: 0
Purple nutsedge; [4]
  Plant response rating, Nutsedge: 0
Purple nutsedge; [5]
  Nutsedge plant response rating: 0
Purple nutsedge; [6]
  Nutsedge plant response rating: 0
Purple nutsedge; [7]
  Nutsedge plant response rating: 0
Purple nutsedge; [8]
  Plant response rating, Nutsedge: 0
pigweed; [1]
  Redroot pigweed plant response rating: 7
pigweed; [2]
  Redroot pigweed plant response rating: 8
pigweed; [3]
  Plant response rating, Redroot pigweed: 6
pigweed; [4]
  Plant response rating, Redroot pigweed: 7
pigweed; [5]
  Redroot pigweed plant response rating: 7
pigweed; [6]
  Redroot pigweed plant response rating: 7
pigweed; [7]
  Redroot pigweed plant response rating: 7
pigweed; [8]
  Plant response rating, Redroot pigweed: 10
rice; [2]
  Rice plant response rating: 0
rice; [9]
  Rice plant response rating: 0
rice; [10]
  Rice plant response rating: 0
rice; [11]
  Rice plant response rating: 0
bedstraw; [1]
  Bedstraw plant response rating: 4
bedstraw; [2]
  Bedstraw plant response rating: 4
bedstraw; [3]
  Plant response rating, Bedstraw: 0
bedstraw; [4]
  Plant response rating, Bedstraw: 0
bedstraw; [5]
  Bedstraw plant response rating: 0
bedstraw; [6]
  Bedstraw plant response rating: 3
bedstraw; [7]
  Bedstraw plant response rating: 4
bedstraw; [8]
  Plant response rating, Bedstraw: 0
Wild oat; [1]
  Wild oats plant response rating: 1
Wild oat; [2]
  Wild oats plant response rating: 1
Wild oat; [3]
  Plant response rating, Wild oats: 0
Wild oat; [4]
  Plant response rating, Wild oats: 6
Wild oat; [5]
  Wild oats plant response rating: 6
Wild oat; [6]
  Wild oats plant response rating: 0
Wild oat; [8]
  Plant response rating, Wild oats: 6
wheat; [1]
  Wheat plant response rating: 1
wheat; [2]
  Wheat plant response rating: 2
wheat; [3]
  Plant response rating, Wheat: 0
wheat; [4]
  Plant response rating, Wheat: 0
wheat; [5]
  Wheat plant response rating: 0
wheat; [6]
  Wheat plant response rating: 0
wheat; [8]
  Plant response rating, Wheat: 0
crabgrass; [1]
  Crabgrass plant response rating: 6
crabgrass; [2]
  Crabgrass plant response rating: 6
crabgrass; [3]
  Plant response rating, Crabgrass: 3
crabgrass; [4]
  Plant response rating, Crabgrass: 3
crabgrass; [5]
  Crabgrass plant response rating: 6
crabgrass; [6]
  Crabgrass plant response rating: 3
crabgrass; [7]
  Crabgrass plant response rating: 6
crabgrass; [8]
  Plant response rating, Crabgrass: 7
rape; [1]
  Rape plant response rating: 5
rape; [2]
  Rape plant response rating: 5
rape; [3]
  Plant response rating, Rape: 0
rape; [4]
  Plant response rating, Rape: 0
rape; [5]
  Rape plant response rating: 0
rape; [6]
  Rape plant response rating: 5
rape; [7]
  Rape plant response rating: 4
rape; [8]
  Plant response rating, Rape: 0
Giant foxtail; [1]
  Giant foxtail plant response rating: 7
Giant foxtail; [2]
  Giant foxtail plant response rating: 7
Giant foxtail; [3]
  Plant response rating, Giant foxtail: 7
Giant foxtail; [4]
  Plant response rating, Giant foxtail: 8
Giant foxtail; [5]
  Giant foxtail plant response rating: 9
Giant foxtail; [6]
  Giant foxtail plant response rating: 1
Giant foxtail; [7]
  Giant foxtail plant response rating: 4
Giant foxtail; [8]
  Plant response rating, Giant foxtail: 10
